Measured values as given in PubChem BioAssay (NCI).
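Growth conditions: 96-well plates. Treatment: test compound, 48 hours, 5 concentrations. Analysis: linear interpolation between bracketing concentrations; unreached endpoints set to highest concentration. At the GI50, growth is halved. The concentration for full growth arrest is given as TGI.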

Experiments:
Test in all cases: inhibition of tumour cell growth, NCI panel, 48 h
K-562 leukemia = system: K-562 leukemia
SN12C renal = system: SN12C renal
KM12 colon = system: KM12 colon
SR leukemia = system: SR leukemia
LOX IMVI melanoma = system: LOX IMVI melanoma
HCT-116 colon = system: HCT-116 colon
MOLT-4 leukemia = system: MOLT-4 leukemia
SK-MEL-5 melanoma = system: SK-MEL-5 melanoma

Cc1c(C(=O)/C=C/c2ccc([N+](=O)[O-])cc2)[n+](=O)c2ccccc2n1[O-]
TGI (K-562 leukemia): > 100 µM
TGI (SN12C renal): > 100 µM
TGI (KM12 colon): > 100 µM
TGI (SR leukemia): > 100 µM
TGI (LOX IMVI melanoma): > 100 µM
TGI (HCT-116 colon): > 100 µM
TGI (MOLT-4 leukemia): 82.2 µM

CC(=O)[CH-]C(=O)c1ccccc1.CC(=O)[CH-]C(=O)c1ccccc1.CC(=O)[CH-]C(=O)c1ccccc1.[Cl-].[Hf+4]
GI50 (K-562 leukemia): 37.6 µM
TGI (K-562 leukemia): > 100 µM
GI50 (SN12C renal): 28.8 µM
TGI (SN12C renal): > 100 µM
GI50 (KM12 colon): 36.1 µM
TGI (KM12 colon): > 100 µM
GI50 (SK-MEL-5 melanoma): 32.5 µM
TGI (SK-MEL-5 melanoma): > 100 µM
GI50 (LOX IMVI melanoma): 14.4 µM
TGI (LOX IMVI melanoma): 92.2 µM
GI50 (MOLT-4 leukemia): 15.4 µM
TGI (MOLT-4 leukemia): > 100 µM

CC(=O)[CH-]C(=O)c1ccccc1.CC(=O)[CH-]C(=O)c1ccccc1.CC[C@H](CCC(C)[C@H]1CCC2[C@@H]3CC=C4C[C@@H]([O-])CC[C@]4(C)C3CC[C@@]21C)C(C)C.CC[C@H](CCC(C)[C@H]1CCC2[C@@H]3CC=C4C[C@@H]([O-])CC[C@]4(C)C3CC[C@@]21C)C(C)C.Cl.[Ti+4] (some centres undefined)
TGI (K-562 leukemia): > 25 µM
TGI (SN12C renal): > 25 µM
TGI (KM12 colon): > 25 µM
TGI (SK-MEL-5 melanoma): > 25 µM
TGI (LOX IMVI melanoma): > 25 µM
TGI (HCT-116 colon): > 25 µM
TGI (MOLT-4 leukemia): > 25 µM

COC1(OC)CCC2(C)OC(c3ccccc3)C1O2 (centres undefined)
TGI (K-562 leukemia): > 100 µM
TGI (SN12C renal): > 100 µM
TGI (KM12 colon): > 100 µM
TGI (SR leukemia): > 100 µM
TGI (LOX IMVI melanoma): > 100 µM
TGI (HCT-116 colon): > 100 µM
TGI (MOLT-4 leukemia): > 100 µM

CC12CCC(=O)N1[C@@H](c1ccccc1)[C@@H](c1ccccc1)O2 (some centres undefined)
TGI (K-562 leukemia): > 100 µM
TGI (SN12C renal): > 100 µM
TGI (KM12 colon): > 100 µM
TGI (SK-MEL-5 melanoma): > 100 µM
TGI (LOX IMVI melanoma): > 100 µM
TGI (HCT-116 colon): > 100 µM
TGI (MOLT-4 leukemia): > 100 µM

[CH3][Ge]([CH3])([CH2]CC#N)[S]c1ccccc1
GI50 (K-562 leukemia): 8 µM
TGI (K-562 leukemia): > 100 µM
GI50 (SN12C renal): 15.2 µM
TGI (SN12C renal): 31.6 µM
GI50 (KM12 colon): 14.6 µM
TGI (KM12 colon): 33.5 µM
GI50 (SK-MEL-5 melanoma): 26 µM
TGI (SK-MEL-5 melanoma): 75.9 µM
GI50 (LOX IMVI melanoma): 4.36 µM
TGI (LOX IMVI melanoma): 16.9 µM
GI50 (MOLT-4 leukemia): 3.58 µM
TGI (MOLT-4 leukemia): 17.6 µM

CCCCN(CCCC)CC(C(=O)Nc1ccc([N+](=O)[O-])cc1[N+](=O)[O-])/C(C)=N\NC(=O)c1ccncc1 (centres undefined)
TGI (K-562 leukemia): > 100 µM
TGI (SN12C renal): > 100 µM
TGI (SK-MEL-5 melanoma): > 100 µM
TGI (LOX IMVI melanoma): > 100 µM
TGI (MOLT-4 leukemia): > 100 µM

Nc1nc2c(ncn2C2OC(CO)C(O)C2O)c(=O)o1 (centres undefined)
TGI (K-562 leukemia): > 100 µM
TGI (SN12C renal): > 100 µM
TGI (KM12 colon): > 100 µM
TGI (SR leukemia): > 100 µM
TGI (SK-MEL-5 melanoma): > 100 µM
TGI (LOX IMVI melanoma): > 100 µM
TGI (HCT-116 colon): > 100 µM

Cc1[nH]c2ccccc2c1/C=C/c1c(C)[nH]c2ccccc12
TGI (K-562 leukemia): > 100 µM
TGI (KM12 colon): > 100 µM
TGI (SK-MEL-5 melanoma): > 100 µM
TGI (HCT-116 colon): > 100 µM
TGI (MOLT-4 leukemia): > 100 µM

C=C1C2CCCC1C1(S(C)(=O)=O)CCCCC21O (centres undefined)
TGI (K-562 leukemia): > 100 µM
TGI (SN12C renal): > 100 µM
TGI (KM12 colon): > 100 µM
TGI (SR leukemia): > 100 µM
TGI (SK-MEL-5 melanoma): > 100 µM
TGI (HCT-116 colon): > 100 µM
TGI (MOLT-4 leukemia): > 100 µM

COc1ccc(C(=O)C(c2ccc(OC)cc2)C2(O)C(=O)Nc3c(Cl)cc(Cl)cc32)cc1 (centres undefined)
TGI (K-562 leukemia): 41.5 µM
TGI (SN12C renal): 35.6 µM
TGI (KM12 colon): 36.9 µM
TGI (SK-MEL-5 melanoma): 34.7 µM
TGI (LOX IMVI melanoma): 44 µM
TGI (MOLT-4 leukemia): 36.2 µM

CC1CN1c1c(C(=O)/C=C/c2ccc(F)cc2)c(-c2ccccc2)nn(C)c1=O (centres undefined)
TGI (SN12C renal): 29.1 µM
TGI (KM12 colon): 29.4 µM
TGI (SK-MEL-5 melanoma): 29.5 µM
TGI (LOX IMVI melanoma): 26.9 µM
TGI (HCT-116 colon): 27.3 µM
TGI (MOLT-4 leukemia): 58.2 µM

CCCN(CCCC(NC(C)=O)C(=O)NCc1ccccc1)C(=O)N(C)N=O (centres undefined)
TGI (K-562 leukemia): > 100 µM
TGI (SN12C renal): > 100 µM
TGI (KM12 colon): > 100 µM
TGI (SK-MEL-5 melanoma): > 100 µM
TGI (LOX IMVI melanoma): > 100 µM
TGI (HCT-116 colon): > 100 µM
TGI (MOLT-4 leukemia): > 100 µM

O=C1C=C(Nc2cc(Cl)ccc2Cl)c2ccccc2C1=O
TGI (K-562 leukemia): 36.8 µM
TGI (SN12C renal): > 100 µM
TGI (KM12 colon): 55.7 µM
TGI (HCT-116 colon): > 100 µM

COC12OCCN(C)C1=CC(=O)C1N=NCC12 (centres undefined)
TGI (K-562 leukemia): > 100 µM
TGI (SN12C renal): > 100 µM
TGI (KM12 colon): > 100 µM
TGI (SK-MEL-5 melanoma): > 100 µM
TGI (LOX IMVI melanoma): > 100 µM
TGI (HCT-116 colon): > 100 µM
TGI (MOLT-4 leukemia): > 100 µM

COc1ccc(N=Nc2c(-c3ccccc3)nn(C(=O)CC(=O)Nc3ccc(OC)cc3)c2-c2ccccc2)cc1
TGI (K-562 leukemia): > 100 µM
TGI (SN12C renal): > 100 µM
TGI (KM12 colon): > 100 µM
TGI (SK-MEL-5 melanoma): > 100 µM
TGI (LOX IMVI melanoma): > 100 µM
TGI (HCT-116 colon): > 100 µM
TGI (MOLT-4 leukemia): > 100 µM

COC(=O)C1=C(C)N(NC(N)=O)C2(N)N(NC(N)=O)C(C)=C(C(=O)OC)C12C#N (centres undefined)
TGI (K-562 leukemia): > 100 µM
TGI (SN12C renal): > 100 µM
TGI (KM12 colon): > 100 µM
TGI (LOX IMVI melanoma): > 100 µM
TGI (HCT-116 colon): > 100 µM
TGI (MOLT-4 leukemia): > 100 µM

O=c1[nH]c(-c2ccccc2)nc2cc([N+](=O)[O-])c(/C(Cl)=C/c3ccccc3)cc12
TGI (K-562 leukemia): > 100 µM
TGI (SN12C renal): > 100 µM
TGI (KM12 colon): > 100 µM
TGI (SR leukemia): > 100 µM
TGI (SK-MEL-5 melanoma): 74 µM
TGI (HCT-116 colon): > 100 µM
TGI (MOLT-4 leukemia): > 100 µM

Cc1cc(NS(=O)(=O)c2ccc(NC(=O)c3cccc4c(Nc5ccc(S(=O)(=O)Nc6cc(C)on6)cc5)c5ccc(Cl)cc5nc34)cc2)no1
TGI (K-562 leukemia): > 100 µM
TGI (SN12C renal): > 100 µM
TGI (KM12 colon): > 100 µM
TGI (SK-MEL-5 melanoma): > 100 µM
TGI (LOX IMVI melanoma): > 100 µM
TGI (HCT-116 colon): 57.5 µM
TGI (MOLT-4 leukemia): > 100 µM

COc1c(CC(C)=O)c2ccccc2n1C(C)=O
TGI (K-562 leukemia): > 100 µM
TGI (SN12C renal): > 100 µM
TGI (KM12 colon): > 100 µM
TGI (SR leukemia): > 100 µM
TGI (HCT-116 colon): > 100 µM
TGI (MOLT-4 leukemia): > 100 µM
